Data from patent publication EP2386565A2, “Compounds and methods to inhibit or augment an inflammatory response” (Cambridge Enterprise Ltd., priority 1999, dated 2000).
Positions of bridges follow the written chain, without caps; N, C: chain ends. Non-standard residues stand in square brackets, D forms with d. Residues, ends and D or L forms follow the SMILES beside them.

Columns and labels:
[1] = Serum half-life of glucose conjugate after s.c. injection; type: in vivo, rats; conditions: unmodified peptide, comparison value
Description: To determine whether sugar conjugates of an agent of the invention had increased plasma half-lives, a glucose conjugate of CRD-Leu4Ile11Cys13 peptide 3(3-12)[MCP-1] was prepared and administered to rats. The conjugate was synthesized by mixing D-glucose (50 mM) and CRD-Leu4Ile11Cys13 peptide 3(3-12)[MCP-1] (1 mM) in phosphate buffered saline and incubating at room temperature for 16 hours. The reaction mixture was then subject to analytical HPLC which indicated a yield of about 30%. The material was then treated with cyanoborohydride to effect reduction of the schiffs base linkage and stabilize the glucosides for purification. The stabilized glucosides were then subjected to preparative HPLC and the mono- and di-substituted glucosides prepared separately. The monoglucoside was obtained at >90% purity in approximately 10% yield, and it is likely that the material is a mixture of Lys5-glucoside and Lys-7 glucoside.
The CRD-Leu4Ile11Cys13 peptide 3(3-12)[MCP-1] monoglucoside was injected into 3 rats (5 mg per rat via s.c. route in sterile PBS). Blood samples were withdrawn through an i.v. cannula at various time points, and CRD-Leu4Ile11Cys13 peptide 3(3-12)[MCP-1] glucoside was quantitated in the serum.

focal ischemic lesion = assay: Intraluminal thread model of ischaemia reperfusion injury (MCAo 90 minutes); type: in vivo, rats
Description: The intraluminal thread (ILT) model is representative of clinical ischaemia reperfusion injury, it gives a focal ischemic lesion and is widely used in the pharmaceutical industry to test candidate compounds for neuroprotective efficacy. Fed, male Sprague Dawley rats (Charles Rivers, approximately 330 g) were anaesthetized with 2% halothane in 70/30 % N2O/O2 and the left middle cerebral artery occluded (MCAo) for 90 minutes using the ILT approach. The MCAo is achieved by the placement of a 3/0 nylon suture into the internal carotid artery and advancing it approximately 18 mm from the carotid bifurcation such that its tip is positioned approximately 1 mm beyond the origin of the MCA. […]
Throughout the surgical period, rectal temperature was monitored and maintained at 37°C with a heated blanket and feedback rectal temperature probe and arterial blood gases were measured prior to and immediately post MCAo. […]
The ischemic damage was assessed by conventional magnetic resonance imaging (T2, diffusion and proton density sequences) on day 1, 2 and 3 post MCAo. […]
After the final MR analysis at 72 hour post ictus the rats were decapitated, the brains removed, stored fresh in cryo-protecting medium at -70°C prior to quantitative immunohistochemical analysis of infiltrating leukocytes (Figure 34). […]

[2] = system: MCP-1 induced calcium flux; assay: Intracellular calcium flux, MCP-1 as agonist; type: cell-based
[3] = system: antigen specific antibody recall response; assay: Antigen (scFv) recall response, safety and serum levels after single i.v. dose; type: in vivo, Cynomolgus monkeys
Description: Cynomolgus monkeys were immunized with antigen that is a single chain Fv (scFv) protein. Each animal previously received 3 i.v. injections of the antigen and all developed high serum titers. Five animals were randomly divided into 2 groups. Two animals served as PBS treated controls and 3 were treated i.v. with 50 mg/kg CRD-Leu4Ile11Cys13 peptide 3(3-12)[MCP-1]. Thirty minutes following CRD-Leu4Ile11Cys13 peptide 3(3-12)[MCP-1] treatment all animals were challenged i.v. with 3.5 mg/kg antigen. In addition, animals were challenged intradermal with each of the following in a volume of 50 µl:PBS; 50 µg antigen; 5 µg antigen; 0.5 µg antigen; 500 ng MCP-1; or 50 ng LPS. Serum was collected at 10 minutes, 30 minutes, 60 minutes, 4 hours, and 24 hours. Animals were sacrificed 24 hours after CRD-Leu4Ile11Cys13peptide 3(3-12)[MCP-1] injection and complete necropsy performed and tissues fixed for histopathology. Fixed and frozen skin samples were harvested for histopathology and immunohistochemistry. Blood, spleen, and lymph node were harvested for assessment of cell function in migration assay, proliferation assay, and antigen specific antibody and cytokine recall. Blood was also analyzed pre- and post-CRD-Leu4Ile11Cys13 peptide 3(3-12)[MCP-1] injection for hematology parameters and serum chemistry. Serum levels were evaluated by an LC-MS method (limit of quantitation = 1 µg/ml) pre-treatment and then at 10 minutes, 30 minutes, 60 minutes, 4 hours and 20-24 hours after injection. Urinalysis was performed pre- and post-CRD-Leu4Ile11Cys13 peptide 3(3-12)[MCP-1] injection.

CC[C@@H](C)[C@H]1NC(=O)[C@@H](CCC(N)=O)NC(=O)[C@H](N)CSSC[C@H](C(N)=O)NC(=O)[C@@H](CC(C)C)NC(=O)[C@@H](CC(=O)O)NC(=O)[C@H]2CCCN2C(=O)[C@@H](CCCCN)NC(=O)[C@@H](CCC(N)=O)NC(=O)[C@@H](CCCCN)NC(=O)[C@@H](Cc2c[nH]c3ccccc23)NC1=O (H-[dC][dQ][dI][dW][dK][dQ][dK][dP][dD][dL][dC]-NH2; disulfide 1-11)
T1/2α [1]: 15 min | reduction in the mean infarct volume (focal ischemic lesion; 2 mg/kg bolus, then 0.5 mg/kg/hr i.v. for 72 hours, all time points, p < 0.0001): 50% | neutrophil accumulation in the penumbra of the lesion (in words) (focal ischemic lesion; rat, in vivo): complete suppression | MCP-1 induced calcium flux (in words) [2]: did not block | hematology and serum chemistry (in words) ([3]; 50 mg/kg i.v.): No clinically significant changes | period with detectable drug levels in serum after treatment ([3]; 50 mg/kg i.v.): 4 h | antigen specific antibody in recall responses of splenocytes, lymph node cells and PBL (in words) ([3]; single i.v. dose 50 mg/kg): lowest detectable levels of antigen specific antibody
